Source: US20230203025A1, “ENHANCERS OF PARTICULATE GUANYLYL CYCLASE RECEPTOR A” (Mayo Foundation for Medical Education and Research, priority 2020, published 2023)

Tests used:
[1] = test system: primary human adipocytes (HAs; visceral and subcutaneous); experiment: cGMP generation in primary human adipocytes (visceral and subcutaneous); type: cell-based
[2] = molecular target: T1, extracellular domain human GC-A recombinant protein (Homo sapiens, UniProt P16066); experiment: SPR GC-A binding studies (Example 7); conditions: Compound 19 alone, His-tagged GC-A on Ni-NTA chip
T1 construct: extracellular domain human GC-A recombinant protein; purchased MyBioSource, Inc
T1 sequence (P16066 33-473 limits assumed): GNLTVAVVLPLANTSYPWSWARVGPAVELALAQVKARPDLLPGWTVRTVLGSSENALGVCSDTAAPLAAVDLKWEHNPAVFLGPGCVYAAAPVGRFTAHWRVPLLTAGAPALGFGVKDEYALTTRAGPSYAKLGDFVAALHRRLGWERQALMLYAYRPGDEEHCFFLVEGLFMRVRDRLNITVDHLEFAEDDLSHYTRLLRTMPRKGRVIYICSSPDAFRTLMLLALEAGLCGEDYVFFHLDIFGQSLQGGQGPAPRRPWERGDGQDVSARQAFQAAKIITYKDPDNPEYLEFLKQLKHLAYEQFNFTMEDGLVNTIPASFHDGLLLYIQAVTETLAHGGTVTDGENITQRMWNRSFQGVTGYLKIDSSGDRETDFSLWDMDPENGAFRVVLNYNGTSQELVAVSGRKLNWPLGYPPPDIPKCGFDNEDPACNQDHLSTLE
Procedure: Methods (GC-A Binding Studies): Surface plasmon resonance (SPR) measurements were performed at 25° C. on a BI-4500 SPR instrument (Biosensing Instrument Inc. Tempe AZ). […] Data was collected as sensorgrams. Binding kinetics were derived from sensorgrams using BI-Data Analysis Program (Biosensing Instrument, Tempe Ariz.).

[3] = hepatic microsomal stability, mouse; type: in vitro ADME
[4] = test system: spontaneously hypertensive rats (SHRs); experiment: IV bolus in spontaneously hypertensive rats; type: in vivo, rat; conditions: SHR, single IV bolus 10 mg/kg
Procedure: Methods (IV Bolus Administration of Compound 19 in (SHRs): the cGMP generating and blood pressure lowering actions of a single IV bolus dose of Compound 19 at 10 mg/kg in spontaneously hypertensive rats (SHRs; n=2; 12 weeks old; Envigo, East Millstone, N.J.) were investigated. Studies were performed in accordance with the Animal Welfare Act and with approval of the Mayo Clinic Institutional Animal Care and Use Committee.
SHRs were anesthetized in an induction chamber with inhaled isoflurane 3%.
During this brief state of anesthesia, SHRs were administered Inactin (100 mg/kg; IP to induce anesthesia and then maintained with by additional Inactin 100 mg/kg (IP), as required. Once adequate anesthesia was achieved, the anesthetized SHRs were subjected to vessel and bladder cannulation for Compound 19 administration, blood sampling and urine collection. A polyethylene (PE)-50 tube catheter was placed into the jugular vein for Compound 19 intravenous (IV) administration. The carotid artery was cannulated with a PE-50 tube catheter for blood pressure monitoring and blood sampling/collection. The bladder was accessed and cannulated with a PE-50 tube catheter for passive urine collection. After completion of the above procedural set up, a 45-minute equilibration period was performed that included a 30-minute baseline urine collection and a single baseline blood sample was performed.

[5] = molecular target: T2, extracellular domain of human pGC-A (Homo sapiens, UniProt P16066); experiment: SPR binding of compound 19 to pGC-A extracellular domain (Example 5)
T2 construct: the extracellular domain of human pGC-A was used
T2 sequence (P16066 33-473 limits assumed): T1 sequence (P16066 33-473 limits assumed)
Procedure: Binding Studies of compound 19 to Human pGC-A Receptor: Surface plasmon resonance (SPR) binding analysis was performed by employing the highly sensitive Biosensing Instrument 4500 system for small molecule binding. For these studies the extracellular domain of human pGC-A was used together with compound 19 at increasing concentrations.

[6] = test system: primary human renal proximal tubular cells (HRPTCs); experiment: cGMP generation in primary human renal proximal tubular cells; type: cell-based
From the text: HRPTCs represent an important human cell line as renal tubular injury and apoptosis leads to impaired renal function and structure.

[7] = test system: human visceral adipocytes; experiment: browning and glycerol production in human visceral adipocytes; type: cell-based

Structure (SMILES): CN(C)CCN1CCCC(C(=O)Nc2nc3c(F)cc(F)cc3s2)C1 (centres unmarked) [Compound 19]
- cGMP generation ([1]; HAs, 1, 5 and 10 μM compound in the presence of ANP (10^−10 M)): clear increase in cGMP generation
- cGMP generation ([1]; HAs, compound alone at similar dose, no ANP): did not generate cGMP generation
- Kd [2]: 0.39 µM
- Hepatic Microsomal Stability (% remaining at 1 h) [3]: 83.6%
- diuresis (urine volume) [4]: increase in diuresis
- mean arterial pressure ([4]; 0-60 min): decrease in mean arterial pressure
- plasma cGMP ([4]; compared to baseline): increase
- urinary cGMP ([4]; compared to baseline): increase
- binding to human pGC-A ([5]; Response (RU) increasing with concentration): clearly validated
- Kd ([5]; compound 2.5 to 20 μM with 0.25 μM pGC-A receptor extracellular domain): 4.1 µM
- cGMP generation ([6]; HRPTCs, 1, 5 or 10 μM compound in the presence of ANP (10^−10 M)): clear increase in cGMP generation
- cGMP generation ([6]; HRPTCs, compound alone at similar dose, no ANP): did not generate cGMP generation
- expression of the browning protein UCP1 ([7]; compound 19 added to ANP): augmented UCPI expression
- ANP induction of glycerol ([7]; compound 19 with ANP, not illustrated): dose dependently increased
